Assay [1] deals with T1, 5-HT3 receptors (Rattus norvegicus, UniProt P35563).
T1 construct: isolated vagus nerve of the rat; from tissue; host or cells: isolated (cervical) vagus nerve of the rat
T1 sequence (P35563 24-483): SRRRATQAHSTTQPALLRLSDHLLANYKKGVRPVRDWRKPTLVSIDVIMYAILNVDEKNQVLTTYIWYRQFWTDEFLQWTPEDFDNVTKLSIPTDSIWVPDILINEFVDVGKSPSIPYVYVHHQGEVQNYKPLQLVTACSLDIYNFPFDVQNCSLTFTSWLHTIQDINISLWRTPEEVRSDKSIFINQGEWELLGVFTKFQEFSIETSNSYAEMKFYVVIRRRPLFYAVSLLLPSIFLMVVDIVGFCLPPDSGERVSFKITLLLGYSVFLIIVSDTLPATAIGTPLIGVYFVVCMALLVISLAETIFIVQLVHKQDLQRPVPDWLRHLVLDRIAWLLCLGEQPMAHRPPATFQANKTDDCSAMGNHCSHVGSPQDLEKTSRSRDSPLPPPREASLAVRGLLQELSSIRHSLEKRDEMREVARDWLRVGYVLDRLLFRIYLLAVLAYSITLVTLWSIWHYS
Briefly: 5-HT3 receptor antagonism in the isolated vagus nerve of the rat (5-HT induced depolarization). The settings on record: isolated rat cervical vagus nerve; antagonism of 5-HT induced depolarization; from 5-HT concentration ratios; read-out: apparent pKB (converted). As to the method:
The compound of the invention are tested for 5-HT3 receptor antagonism in the isolated vagus nerve of the rat by a method based upon that of Ireland S. J. and Tyers M. B., Brit. J. Pharmacol., 1987, 90, 229-238. The procedure relies upon the ability of 5-HT to induce depolarization of neurones in the cervical vagus nerve by a direct action on 5-HT3 receptors. A concentration-response curve to 5-HT induced depolarization is obtained and the antagonists are added to the bath containing the isolated nerve before repeating the 5-HT concentration-response curve. Antagonist potency is estimated for the 5-HT concentration ratios and expressed as an apparent pKB value (where KB is the antagonist dissociation constant).

The target of assay [2] is T2, 5-HT3 receptors (Oryctolagus cuniculus, UniProt A0A5F9C9J3).
T2 construct: 5-HT3 receptors present on sympathetic nerve terminals in the heart; from tissue; host or cells: isolated right atrium of the rabbit heart (sympathetic nerve terminals)
T2 sequence (A0A5F9C9J3 1-494): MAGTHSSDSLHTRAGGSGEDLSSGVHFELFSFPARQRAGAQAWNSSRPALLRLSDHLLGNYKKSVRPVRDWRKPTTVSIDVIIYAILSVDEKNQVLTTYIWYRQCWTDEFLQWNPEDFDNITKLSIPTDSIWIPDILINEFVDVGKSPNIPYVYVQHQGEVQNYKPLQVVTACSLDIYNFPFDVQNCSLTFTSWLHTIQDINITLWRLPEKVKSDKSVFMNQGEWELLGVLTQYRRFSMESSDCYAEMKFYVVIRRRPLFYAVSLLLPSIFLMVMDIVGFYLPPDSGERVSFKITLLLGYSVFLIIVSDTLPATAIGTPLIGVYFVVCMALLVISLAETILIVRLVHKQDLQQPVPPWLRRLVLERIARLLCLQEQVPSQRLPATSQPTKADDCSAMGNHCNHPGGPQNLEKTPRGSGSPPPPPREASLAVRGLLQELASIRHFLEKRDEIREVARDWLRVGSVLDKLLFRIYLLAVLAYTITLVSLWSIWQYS
Briefly: 5-HT3 antagonistic activity in the isolated right atrium of the rabbit heart. The note with it: antagonism of 5-HT evoked increase in spontaneous rate of beating, read-out: apparent pKB (converted). As to the method:
The compounds of the invention are also tested for 5-HT3 antagonistic activity in the isolated right atrium of the rabbit heart based upon the method of Fozard J. R., Naunyn-Schmiedeberg's Arch. Pharmacol., 1984, 326, 36-44. This procedure relies upon the ability of 5-HT to stimulate 5-HT3 receptors present on sympathetic nerve terminals in the heart, causing release of noradrenaline which evokes an increase in the spontaneous rate of beating. The antagonist potency is expressed in a similar manner to that of the preceding test method i.e. as an apparent pKB.

In the case of `CN1[C@@H]2CC[C@H]1C[C@@H](Oc1ccc3ccccc3n1)C2` [Example 2, Endo-8-methyl-3-(2-quinolyloxy)-8-aza-bicyclo[3.2.1]octane], the Kb on 5-HT3 receptors [1] is 31.6 nM; on 5-HT3 receptors [2], 2.51 nM.

Source of the values: patent publication US5082843A, “Pyrazinyl and pyridazinyl ethers” (John Wyeth and Brother Limited, priority 1987, dated 1992).
